This is an account of results in the METLIN SMRT retention time set (Domingo-Almenara et al. 2019).

This series can be described thus: gradient 5% acetonitrile 3 min, to 50% in 2 min, to 85% in 15 min, held 3 min, 100 µL/min. As to conditions: column: Zorbax Extend-C18 2.1 x 50 mm; eluents: water / acetonitrile, 0.1% formic acid. The gist of the method:
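The system's dead and dwell volumes were 40 μL and 900 μL, with a Zorbax Extend-C18 column (2.1 × 50 mm, 1.8 μm) run at 100 μL/min in water and acetonitrile containing 0.1% formic acid each. Pure standards were analyzed in mixtures of ~100 molecules by HPLC–quadrupole time-of-flight mass spectrometry in positive and negative ionization mode. Retention time was assigned from computationally picked, manually inspected adduct peaks.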
Take `CCCOc1nccnc1NC1CCN(C(=O)c2ccn(CC)n2)CC1`: the RP-LC retention time is 722 s.
As for `Cc1cccc(C)c1NC(=O)N1CCC(OC2CCN(Cc3ccccc3)CC2)CC1`, the figure is 661 s; as for `CCCn1c(-c2cccc(C(=O)NCc3ccncc3)c2)nc2cccnc21`, 592 s; as for `COCCNC(=O)c1cn2ccc(C)cc2n1`, 616 s.
As for `CC1(CNC(=O)NCCc2ccccc2)CCOCC1`, the figure is 696 s; as for `CCc1ccc(NC(=O)N2CCC(n3cnc4ccc(Cl)cc4c3=O)CC2)cc1`, 921 s; as for `O=C(NC(c1ccccc1)c1nnc(N2CCOCC2)o1)c1cccc(Cl)c1` (stereo not drawn), 796 s.
As for `O=c1[nH]c2ccc(NCc3ccc(Cl)c(Cl)c3)cc2[nH]1`, the figure is 707 s.
Take `CS(=O)(=O)Nc1ccc2oc3c(OC(F)F)ccc(C(=O)Nc4c(Cl)cncc4Cl)c3c2c1`: the RP-LC retention time was found to be 967 s.
As for `Cc1nnc2ccc(-c3noc(Cc4ccccc4Cl)n3)cn12`, the figure is 852 s; as for `CCCN1C(=O)COc2cc(-c3noc(C(=O)NC(C)CC)n3)ccc21` (stereo not drawn), 950 s.
As for `O=C(NCCCn1cccn1)C1CCc2nc(N3CCCC3)ncc2C1` (stereo not drawn), the figure is 575 s; as for `Cc1ccc(S(=O)(=O)N2C(=O)CCC2C(=O)NC2CCCCCCC2)cc1C` (stereo not drawn), 1060 s; as for `Cc1ccc(-c2cn3c(CC(=O)Nc4ccc(C)c(F)c4)csc3n2)cc1C`, 933 s.
Compound `COc1ccc(NS(=O)(=O)c2cc(-c3cc(C(F)(F)F)on3)sc2C)cc1OC` registered an RP-LC retention time of 1020 s.
For the compound `COc1ccc(N2CCN(C3CC(=O)N(Cc4ccc(N5CCCC5=O)cc4)C3=O)CC2)cc1` (stereo not drawn), the RP-LC retention time was 662 s.
As for `Cc1cccc(CNC2=NCCNC23CCN(S(=O)(=O)c2ccc(Cl)cc2)CC3)c1`, the figure is 762 s.
As for `CC1=C(c2ccc(C)c(C)c2)S(=O)(=O)N=C1N1CCCN(C(=O)c2cccs2)CC1`, the figure is 874 s; as for `O=C(Cc1c[nH]c2ccccc12)N1CCC(NS(=O)(=O)c2ccc(Cl)cc2)CC1`, 829 s; as for `O=C(NCCc1csc(-c2ccccc2)n1)C1CCN(C(=O)c2ccc(F)c(F)c2)CC1`, 816 s.
As for `O=C(CSCc1ccccc1)Nc1nnc(-c2ccsc2)o1`, the figure is 757 s; as for `CCCC(=O)Nc1ccc(CCc2nc3ccc(C(=O)NCCOC)cc3[nH]2)cc1`, 599 s; as for `Cn1c(=O)n(CC(=O)Nc2cccc(Cl)c2)c(=O)c2cnc(-c3ccccc3)nc21`, 1050 s.
Compound `COc1ccc(-c2noc(Cn3ccnc3C)n2)cc1` had an RP-LC retention time of 611 s.
As for `CC(=O)Nc1ccc2c(c1)CN(C(=O)c1c(F)cccc1Cl)C(C(=O)N(C)C)C2` (stereo not drawn), the figure is 900 s; as for `O=C(NCc1ccc(F)cc1)C1CCN(c2cc(N3CCOCC3)ncn2)CC1`, 607 s; as for `CCn1ccc2cc(S(=O)(=O)N3CCC(C(=O)NC(C)Cc4ccco4)CC3)ccc21` (stereo not drawn), 905 s.
As for `Cc1ccc(NC(=O)C2CCCN2S(=O)(=O)c2cc3c(cc2C)NC(=O)CO3)cc1F` (stereo not drawn), the figure is 808 s; as for `CC1=C(c2ccccc2)S(=O)(=O)N=C1N1CCC(NC(=O)COc2ccccc2)CC1`, 841 s.
As for `CC(C)C(=O)N1CCc2cc(CNS(=O)(=O)Cc3ccccc3)ccc21`, the figure is 652 s; as for `CCN(Cc1cn(C)nc1C)C(=O)C1CN(C(=O)c2ccccc2)CC12CCCCC2` (stereo not drawn), 793 s; as for `Cc1cccc(NC(=O)C2CCCN(S(=O)(=O)c3c[nH]c(C(=O)N4CCCCCC4)c3)C2)c1` (stereo not drawn), 922 s.
`CCN(C(=O)CCc1ccccc1)c1nc(-c2ccccc2)cs1` returned an RP-LC retention time of 1320 s.
